How the values were obtained:
C57BL/6 mice [1] = assay: Open field test (OFT); assay type: in vivo; details: for time spent in the center of the arena in OFT (anxiety level) / number of total line crossings in OFT (locomotor activity): i.p. pretreatment, 10 min test session; for time spent in the center of the arena in OFT (anxiety level): ST-2300 10 or 15 mg/kg, PIM 5–15 mg/kg, DZP 1 mg/kg, vs controls; for number of total line crossings in OFT (locomotor activity): ST-2300 or PIM 5–15 mg/kg, C57BL/6 mice
Experimental: (§1) Inbred adult male C57BL/6 mice (aged 10–12 weeks and weighing 20–25 g) were obtained from the animal facility in the College of Medicine and Health Sciences, United Arab Emirates University. The animals were maintained in a separate air-conditioned room with controlled temperature and humidity (24 ± 2 °C and 55 ± 15%, respectively), with a 12 h light/dark cycle, and ad libitum to food and water. All the experiments were performed between 9.00 am and 3.00 pm. The procedures were approved by the Institutional Animal Ethics Committee of College of Medicine and Health Sciences/United Arab Emirates University (Approval No. ERA-2019-6010). To reduce the suffering of the animals, a minimum number of animals were used in this study, whereas the objectives were not compromised.
(§2) These experiments provide the first behavioral assessment of the ST-2300 in anxiety-like and depression-like behaviors in mice. All doses are expressed in terms of the free base of all test compounds. The drugs used in the current study were dissolved in saline and injected i.p. at a volume of 1 mL/kg. All experimental procedures were conducted in a blinded fashion in which the experimenter was uninformed about the specific treatment groups to which an animal group belonged. Saline, ST-2300 (5, 10, and 15 mg/kg), PIM (5, 10, and 15 mg/kg), FLX (10 mg/kg), RAM (10 mg/kg), and DZP (1 mg/kg) were injected i.p. 30–45 min before the beginning of the behavioral experiments.
To analyze the effect of ST-2300 on locomotion and anxiety behaviors in animals, OFT was carried out. In addition to locomotor activity, the OFT is usually used to measure anxiety-like behaviors in experimental rodents. The test provides a unique opportunity to systematically assess novel environment exploration, general locomotor activity, and provide an initial screen for anxiety-related behavior in experimental rodents. The OF box consisted of a square box (45 × 45 × 30 cm). A 23 × 23 cm area in the center region was defined as the central arena, and the remaining area was defined as periphery area. The mice with a higher degree of anxiety prefer to stay closer to the walls of the box and spend less time in the center, whereas increased time spent in the central area indicates low anxiety level and high exploratory behaviors. The first 5 min of the experiment were considered as habituation, followed by 10 min test session. Total distance moved in the whole arena, time spent in the center, and in the periphery were recorded for 10 min using a charge-coupled, camera-assisted, motion-tracking apparatus and software (EthoVision 3.1, Noldus Information Technology, Wageningen, The Netherlands). After each mouse completed the test, the OF chamber was cleaned thoroughly with 70% (volume/volume; vol/vol) alcohol.

C57BL/6 mice [2] = assay: Forced swim test (FST); assay type: in vivo; details: for immobility time in FST: acute i.p. pretreatment, ST-2300 or PIM 5, 10, 15 mg/kg, vs saline controls, adult male C57BL/6 mice, 6 min
Experimental: as §1, §2
The FST test was performed according to previously described protocols. Mice were individually placed into glass cylinders containing 15 cm of water at ∼25 °C. The mice were left in the cylinders for 6 min and immobility was observed and analyzed. The mice were then removed from the container and left to dry in a heated enclosure before being returned to their home cages. The mice were considered to be immobile when they ceased struggling and remained floating motionless in the water (without any vertical or horizontal movements), making only the movements necessary to keep their heads above the water level as described previously.

human 5-HT6 = target: T1, human 5-HT6 (Homo sapiens, UniProt P50406); assay: Radioligand displacement assay at 5-HT6 ([3H]-LSD, HEK293 cells); assay type: binding; details: HEK293 cells stably expressing h5-HT6, read-out: Ki ± SD (n), 5-HT6
T1 construct: expressed in transfected cells; host or cells: HEK293
Experimental: HEK293 cells with a stable expression of human 5-HT1A, 5-HT6, 5-HT7b, and D2L (prepared with the use of Lipofectamine 2000), or CHO-K1 cells with plasmids containing the sequence coding for the human serotonin 5-HT2A receptor (PerkinElmer), were maintained at 37 °C in a humidified atmosphere with 5% CO2 and grown in Dulbecco’s Modified Eagle Medium containing 10% dialyzed fetal bovine serum and 500 µg/mL G418 sulfate. For membrane preparation, cells were subcultured in 150 cm^2 flasks, grown to 90% confluence, washed twice with prewarmed to 37 °C phosphate buffered saline (PBS) and pelleted by centrifugation (200× g) in PBS containing 0.1 mM EDTA and 1 mM dithiothreitol. Prior to membrane preparation, the pellets were stored at −80 °C.
Cell pellets were thawed and homogenized in 10 volumes of assay buffer using an Ultra Turrax tissue homogenizer, and were then centrifuged twice at 35,000× g for 15 min at 4 °C, with incubations for 15 min at 37 °C in between. […] The process of equilibration was terminated by rapid filtration through Unifilter plates with a 96-well cell harvester and the radioactivity retained on the filters was quantified on a Microbeta plate reader (PerkinElmer, Waltham, MA, USA). […] The inhibition constants (Ki) were calculated from the Cheng-Prusoff equation [38]. Results are expressed as means of two separate experiments.

T1 sequence (P50406 whole entry): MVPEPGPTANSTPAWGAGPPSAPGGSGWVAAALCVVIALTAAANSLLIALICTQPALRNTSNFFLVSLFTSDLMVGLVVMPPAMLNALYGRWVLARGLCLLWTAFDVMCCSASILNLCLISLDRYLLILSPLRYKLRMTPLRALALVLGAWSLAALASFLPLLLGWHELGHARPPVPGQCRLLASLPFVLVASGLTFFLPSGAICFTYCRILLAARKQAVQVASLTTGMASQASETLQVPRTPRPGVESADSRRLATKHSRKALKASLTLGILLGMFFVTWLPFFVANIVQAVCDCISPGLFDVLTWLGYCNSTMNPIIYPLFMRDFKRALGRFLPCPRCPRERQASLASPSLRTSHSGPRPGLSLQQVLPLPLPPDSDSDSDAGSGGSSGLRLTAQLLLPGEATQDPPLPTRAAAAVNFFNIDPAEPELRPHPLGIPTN

| SMILES | time spent in the center of the arena in OFT (anxiety level) (C57BL/6 mice [1]) | number of total line crossings in OFT (locomotor activity) (C57BL/6 mice [1]) | immobility time in FST (C57BL/6 mice [2]) | Ki (human 5-HT6) [nM] | time spent in the center in OFT, co-administration of RAM (C57BL/6 mice [1]; ST-2300 10 mg/kg i.p. co-administered with RAM 10 mg/kg i.p.) | immobility time in FST, co-administration of RAM (C57BL/6 mice [2]; ST-2300 10 mg/kg i.p. co-administered with H3R agonist RAM 10 mg/kg i.p., vs ST-2300 alone) |
| --- | --- | --- | --- | --- | --- | --- |
| CC(C)COc1ccc(CNC(=O)N(Cc2ccc(F)cc2)C2CCN(C)CC2)cc1 [Pimavanserin, reference compound] | failed to provide any appreciable effects on the anxiety levels | did not alter the number of total line crossings | significant and dose-dependent decrease of immobility time | 59 ± 11 |  |  |
| CN1CCC(N(Cc2ccc(F)cc2)C(=O)NCc2ccc(OCCCN3CCCCC3)cc2)CC1 [ST-2300, 1-(4-Fluorobenzyl)-1-(1-methylpiperidin-4-yl)-3-{4-[3-(piperidin-1-yl)propoxy]benzyl}urea] | dose-dependent increase of time spent in the center of the arena | did not alter the number of total line crossings | significant and dose-dependent decrease of immobility time | > 10000 | could not be reversed by co-administration with RAM | significant increase of immobility time |

— article PMC9138994 (Biomolecules, 2022)
